# From publication PMC9569447 (International Journal of Molecular Sciences, 2022)
# Where two headings read alike, the source gives them in different places.
# Tests used:
# [1] = system: diet-induced obese (DIO) Sprague Dawley rats; experiment: Post-treatment serum levels after the 22-day treatment; format: in vivo, rat; details: serum, 2 h post final injection after 22 days; mean ± SEM; n = 6 (Oxytocin n = 4)
# Procedure: Cardiac puncture was used to collect blood for analysis 2 h post final injection. Commercially available enzyme-linked immunosorbent assays (ELISA) were used for quantitative assessment of leptin (cat. # EZRL-83K; MilliporeSigma, Burlington, MA, USA), insulin (cat. # EZRMI-13K; MilliporeSigma, Burlington, MA, USA), and adiponectin (cat. # EZRAPD-62K MilliporeSigma, Burlington, MA, USA). Serum samples were diluted 1:500 for the adiponectin ELISA using the sample diluent provided with the kit. All ELISAs were completed following the manufacturers recommendations. Levels of glucose, cholesterol (total, HDL, and calculated LDL), triglycerides, ALT, and AST were determined in the serum on a Modular P chemistry analyzer (Roche Diagnostics, Risch-Rotkreuz, Switzerland) by the University of Washington Nutrition and Obesity Research Center’s Analytic Core (Seattle, WA, USA).
# [2] = native OXT; cited from earlier work
# Excerpt: This OXT analog is a full agonist at OXT receptor, and it addressed some of the limitations of using OXT as a weight loss therapeutic.
# [3] = rat, in vivo, sc; cited from earlier work
# [4] = mouse, in vivo, sc; cited from earlier work
compound,measurement,setting,value
"CC[C@H](C)[C@@H]1NC(=O)[C@H](Cc2ccc(O)cc2)NC(=O)[C@@H](N)CSSC[C@@H](C(=O)N2CCC[C@H]2C(=O)N[C@@H](CC(C)C)C(=O)NCC(N)=O)NC(=O)[C@H](CC(N)=O)NC(=O)[C@H](CCC(N)=O)NC1=O [OXT, oxytocin]",ALT,[1],40 ± 5 U/L
same,AST,[1],128 ± 22 U/L
same,half-life in vivo,[2],~5 min
same,CLplasma,[3],17.1 mL/min/kg
same,T1/2,[3],7.2 min
same,Vd,[3],0.085 L/kg
same,Cmax,[4],216 nM
same,Free Cmax,[4],191 nM
same,T1/2,[4],30 min
same,Tmax,[4],15 min
